Source: patent US6291432A (Japan Energy Corporation, priority 1996, dated 2001)
≈ marks a conversion by molar mass, not a printed value.

How the values were obtained:
[1] = test system: HIV virus strain HIV-1 IIIB; assay: Anti-HIV activity in HIV infected CEM-SS cells (XTT method); assay type: cell-based; details: Human immunodeficiency virus 1, 144 h, HIV-1 IIIB infected CEM-SS cell, six days at 37° C.
Procedure: (§1) EP 0751145 A2). On a 96-well micro titre plate, the test compounds were added to the culture medium in various concentrations, then the HIV infected CEM-SS cell was added and incubated for six days at 37° C. using a CO2 incubator. The number of the living cells was then measured by a XTT method. On the other hand, in order to examine the cytotoxicity of the test compounds, the test compounds were added in various concentrations and the HIV virus non-infected cell was incubated under similar conditions. As the reference group, the HIV infected CEM-SS cell was incubated without the addition of the test compounds. Moreover, the HIV virus non-infected cell was incubated without the addition of the test compound as the control group. The anti-virus activity was evaluated in a concentration in which the cytotoxic effect caused by the HIV infected virus in the above HIV infected cell group was inhibited 50 percent (EC50, 50% effective concentration), and the cytotoxicity was evaluated in a concentration in which the cytotoxic effect by the addition of the test compound in the HIV virus non-infected cell group occurred at 50 percent (TC50, 50% cytotoxic concentration) respectively.

[2] = target: T1, recombinant HIV-1 protease (Human immunodeficiency virus type 1 group M subtype B, UniProt P04585); assay: Evaluation of enzyme inhibition constant Ki; assay type: biochemical
T1 construct: measured using a recombinant HIV-1 protease
Procedure: The synthesized peptide substrate having a sequence of H-Lys-Ala-Arg-Val-Tyr-Phe (4-NO2)-Glu-Ala-Nle-NH2 (SEQ ID NO. 1) was used in this experiment. The enzyme reaction was measured using a reversed phase HPLC by determining the C-terminal peptide fraction produced by cleavage just behind Tyr in the synthesized substrate which is obtained by reacting the following composition for 15 min. at 37° C. and stopping the reaction by the addition of 1N HCl (75 μl).
Composition of reaction mixture
Recombinant HIV-1 protease enzyme solution 10 μl
0.5 mM synthetic substrate aqueous solution 10 μl
DMSO Inhibitor solution 5 μl
0.2 M MES solution 25 μl
(1 M NaCl, 2 mM EDTA-2Na, 2 mM DTT, pH 5.5)
Column: Waters Nova-pak C18 (3.9×75 mm)
Eluent: A; water (0.1% TFA)
B; acetonitrile (0.1% TFA)
Flow rate: 2 ml/min isocratic; 10% B solution
Detection: Fluorescence 305 nm, excitation 275 nm

CEM-SS cell = assay: Cytotoxicity in HIV virus non-infected CEM-SS cells (XTT method); assay type: cell-based; details: six days, highest concentration 1.0 μg/ml
Procedure: as §1

[3] = Pharmacokinetics test (digestive tract absorption and metabolic characteristics) in rats; assay type: in vivo; details: 10 mg/kg; for F (biological utilization rate of administration in the duodenum): Id versus Iv; for MRT / T1/2 (λ): Iv; for T1/2 (λ): final phase half-life
Procedure: The metabolic characteristics of the tripeptide compound of the present invention were evaluated using rats for a test animal. As the Control Example, the result of KNI-272 ((R)-N-tert-butyl-3-{(2S,3S)-2-hydroxy-3-[N-(isoquinolin-5-yloxy)acetyl-me thylthio-L-alanyl]amino-4-phenylbutanoyl}-1,3-thiazolidine-4-carboxamide; iQoa-Mta-Apns-Thz-NHtBu) which is a tripeptide derivative known in the art, is also shown. The amount administred was 10 mg/kg. The evaluated administration methods are a method (id) of administering a solution of a fixed amount of the test compound in the duodenum of a test animal, and a method (iv) of administering the solution intravenously. After administration, blood samples were taken from the test animal and concentrations of the residual test compound in the plasma were analyzed. As indices concerning pharmacokinetics, AUC (area under medicine concentration curve in plasma), MRT (mean residence time), t1/2 (λ) (final phase half-life period), and the biological utilization rate of administration in the duodenum F were calculated.

[4] = target: T1, recombinant HIV-1 protease; assay: HIV protease inhibition activity (enzyme activity inhibition rate); assay type: biochemical; details: 50 nM final concentration of test compound; 60 min at 37° C.; read-out: Enzyme activity inhibition rate (%) (addition concentration of 50 nM)
Procedure: The protease activity was measured using a recombinant HIV-1 protease (see Biochemistry, 250 (9)-264 (1990)) and a synthesized peptide substrate. The inhibition rate was calculated by determining a peptide fragment generated by cleavage between Tyr-Pro of the synthesized substrate after the reaction of 60 min at 37° C. using a reversed phase HPLC in the presence of the test compounds in various concentrations (see, for example, Japanese Patent Application Laid-open No. 170722/1993).
Examples of the evaluation results of the HIV protease inhibition activity of the tripeptide compound of the present invention by the above-described method is shown in Table 1. […] The concentration of the test compounds in Table 1 represents the final concentration in the reaction mixture.

Structure (SMILES) | EC50 [1] | Ki [2] | Cytotoxicity TC50 (CEM-SS cell) | AUC ([3]; Id (in the duodenum)) | F (biological utilization rate of administration in the duodenum) [3] | MRT [3] | AUC ([3]; Iv (intravenous)) | T1/2 (λ) [3] | inhibition at 0.05 µM [4]
CC(C)[C@H](NC(=O)COc1cccc(N(C)C)c1)C(=O)N[C@@H](Cc1ccccc1)[C@H](O)C(=O)N1CSC(C)(C)[C@H]1C(=O)NC(C)(C)C [Example 35, (R)-N-tert-butyl-3-{(2S,3S)-2-hydroxy-3-[(S)-2-(3-dimethylaminophenoxyacetyl)amino-3-methylbutanoyl]amino-4-phenylbutanoyl}-5,5-dimethyl-1,3-thiazolidine-4-carboxamide] | 0.01 µg/mL (≈ 0.0149 µM) | 0.07 nM | > 1.0 µg/mL | 105 µg·min/mL | 89% | 1.13 h | 119 µg·min/mL | 1.05 h | 96%
CC(C)c1nc(CN(C)C(=O)N[C@H](C(=O)N[C@@H](Cc2ccccc2)C[C@H](O)[C@H](Cc2ccccc2)NC(=O)OCc2cncs2)C(C)C)cs1 [Ritonavir, reference compound] | 0.033 µg/mL (≈ 0.0458 µM) | – | > 1.0 µg/mL | – | – | – | – | – | –
COC(=O)N[C@H](C(=O)N[C@@H](Cc1ccccc1)[C@H](O)C(=O)N1CSC(C)(C)[C@H]1C(=O)NCc1ccccc1C)C(C)C [Example 27, (R)-N-(2-methylbenzyl)-3-{(2S,3S)-2-hydroxy-3-[(S)-2-(methoxycarbonyl)amino-3-methylbutanoyl]amino-4-phenylbutanoyl}-5,5-dimethyl-1,3-thiazolidine-4-c arboxamide] | 0.026 µg/mL (≈ 0.0434 µM) | – | > 1.0 µg/mL | 87 µg·min/mL | 32% | 1.18 h | 272 µg·min/mL | 1.45 h | 94.9%
CC[C@H](NC(=O)COc1cccc(N(C)C)c1)C(=O)N[C@@H](Cc1ccccc1)[C@H](O)C(=O)N1CSC(C)(C)[C@H]1C(=O)NC(C)(C)C [Example 36, (R)-N-tert-butyl-3-{(2S,3S)-2-hydroxy-3-[(S)-2-(3-dimethylaminophenoxyacetyl)aminobutanoyl]amino-4-phenylbutanoyl}-5,5-dimethyl-1,3-thiazolidine-4-car boxamide] | 0.017 µg/mL (≈ 0.0259 µM) | – | > 1.0 µg/mL | 185 µg·min/mL | 82% | 2.07 h | 226 µg·min/mL | 1.83 h | 95%
COc1cccc2cc(C(=O)N[C@H](C(=O)N[C@@H](Cc3ccccc3)[C@H](O)C(=O)N3CSC(C)(C)[C@H]3C(=O)NCc3ccccc3C)C(C)C)oc12 [Example 16, (R)-N-(2-methylbenzyl)-3-{(2S,3S)-3-[N-(7-methoxybenzofuran-2-carbonyl)-L-valyl]amino-2-hydroxy-4-phenylbutanoyl}-5,5-dimethyl-1,3-thiazolidine-4-carb oxamide] | 0.0017 µg/mL (≈ 0.00238 µM) | 0.014 nM | > 1.0 µg/mL | 90 µg·min/mL | 27% | 1.12 h | 322 µg·min/mL | 1.23 h | 97.1%
